From patent publication US9650420B2, “Peptides for preventing or treating bone diseases and use thereof” (KYUNGPOOK NATIONAL UNIVERSITY INDUSTRY—ACADEMIC COOPERATION …, priority 2015, dated 2017)
Where no end group is shown, it is not given here.

Assays:
bone (femurs) = assay: Micro CT of femurs: bone density and trabecular thickness in osteoporosis (ovariectomy) model and control mice; assay type: in vivo; conditions: osteoporosis model mouse, 50 μg/kg intraperitoneally twice per day for 3 weeks, compared with PBS; micro CT on 22nd day
Protocol: After 1 week, 50 μg/kg of Osteopep1 (PEPTRON) and 100 μl of PBS (Gibco) were intraperitoneally administered every 12 hours twice per day for 3 weeks. […] The femurs was separated from the mouse and refrigerated in 80% ethanol. Then, for micro CT scanning, a tissue having a thickness of 40 μm was measured with a micro CT scanner (Inveon preclinical CT, Siemens Healthcare, Hoffman Estates, Ill.) under conditions including an exposure time of 600 msec, photon energy of 70 keV, and a current of 400 μA. In order to measure a bone density (bone volume/total volume) and a trabecular thickness, pieces each having a volume of 2.5×0.5×0 5 mm^3 from the same site of each group were measured with Siemens Inveon Software. […] After 1 week, 50 μg/kg of Osteopep1 (PEPTRON) and 100 μl of PBS (Gibco) were intraperitoneally administered every 12 hours twice per day for 3 weeks. […] On the 22nd day, the femurs was separated from the mouse and refrigerated in 80% ethanol. Then, a bone density and a trabecular thickness were measured by micro CT.

[1] = system: adhesion factors for hematopoietic stem cells present in osteoblasts; assay: Expression level of adhesion factors in osteoblasts differentiated from BM-MSC (real-time quantitative PCR); assay type: cell-based, C57BL/6 mouse; conditions: osteoblasts treated with 0 nM and 10 nM for three days, compared with untreated Control; p<0.05
Excerpt: After a 4-week- to 6-week-old C57BL/6 mouse was anesthetized and sacrificed, the tibias and the femurs were removed. Bone marrow was harvested from the tibias and the femurs, and a single cell suspension was obtained by using a 40 μm cell strainer (Becton-Dickinson LAβware, Franklin Lakes, N.J.). About 10^7 cells were divided in a 75-cm^2 flask including Mesenchymal Stem Cell Stimulatory Supplements (Stem Cell Technologies, Inc.) added with antibiotics and MesenCult™ MSC Basal medium. After being cultured for one week, the cells were cultured for three weeks in StemXVivo Osteogenic/Adipogenic Base Media (R&D systems) added with StemXVivo Osteogenic supplement (20×) and penicillin-streptomycin (100×) for differentiation into osteoblasts. The culture media were replaced every 2 to 3 days.
(§1) In order to measure expression levels of adhesion factors (Sdf-1a, Kitl, Angpt1, IL7, Vcam1, Spp1) for hematopoietic stem cells present in osteoblasts, a real-time quantitative PCR was used.
An RNeasy Plus mini kit (Qiagen, Korea, Ltd.) was used to extract total RNA from a cell eluent and bone marrow cells. […] Further, a Corbett research RG-6000 real-time PCR device was used to perform a real-time quantitative PCR repeatedly for 40 cycles under a condition of 95° C. for 10 minutes; 95° C. for 10 seconds; 58° C. for 15 seconds; and 72° C. for 20 seconds per cycle. […]

[2] = system: adhesion factors (Sdf-1a, Kitl, Angpt1, IL7, Vcam1, Spp1) for hematopoietic stem cells; assay: Expression level of adhesion factors for hematopoietic stem cells in bone marrow of normal mice (real-time quantitative PCR); assay type: in vivo, C57BL/6 mice; conditions: normal mouse, 50 μg/kg intravenous injection to tail, bone marrow harvested after 60 minutes; p<0.05
Protocol: Osteopep1 used herein was produced by PEPTRON. For in vitro experiment, 0 nM Osteopep1 and 10 nM Osteopep1 were diluted in respective media and then injected. Further, for in vivo experiment, three mice per group, fifteen mice in total, were anesthetized with a mixed solution of 100 mg/kg of ketamine and 10 mg/kg of xylazine. Further, the each mouse was administered with 50 μg/kg of Osteopep1 and 100 μl of PBS (Gibco) by intravenous injection to its tail.
as §1
An RNeasy Plus mini kit (Qiagen, Korea, Ltd.) was used to extract total RNA from a cell eluent and bone marrow cells. A kit produced by Clontech (Mountain View, Calif.) was used to synthesize cDNA from 5 μg of the total RNA. Further, a Corbett research RG-6000 real-time PCR device was used to perform a real-time quantitative PCR repeatedly for 40 cycles under a condition of 95° C. for 10 minutes; 95° C. for 10 seconds; 58° C. for 15 seconds; and 72° C. for 20 seconds per cycle. […]

[3] = system: bone marrow hematopoietic progenitor cells in blood; assay: CFU assay: mobilization of bone marrow hematopoietic progenitor cells to blood in osteoporosis model; assay type: in vivo, mice; conditions: osteoporosis (ovariectomy) models, 50 μg/kg intraperitoneally every 12 hours for 3 weeks; p<0.05
Protocol: After 1 week, 50 μg/kg of Osteopep1 (PEPTRON) and 100 μl of PBS (Gibco) were intraperitoneally administered every 12 hours twice per day for 3 weeks. […] In order to measure the number of bone marrow hematopoietic progenitor cells in blood of a mouse, CFU assays were conducted. A mouse was anesthetized, and then, 500 μl to 700 μl of blood was collected from the heart into a heparin tube. Then, the collected blood was put into an ammonium chloride solution (Stem Cell Technologies, Inc. 1:10) and then placed in ice for 15 minutes, and red blood cells were removed. The resultant solution was shaken every 2 to 3 minutes to remove red blood cells well, and then, centrifuged for 7 minutes at 1000 rpm. The supernatant was removed, and the resultant solution was washed with IMDM (Gibco) supplied with 2% fetal bovine serum (FBS) (Gibco). The washed cells (3×10^5 per mouse) were divided into three 35 mm dishes (1×10^5 per dish) respectively including methylcellulose-based media (Methocult, Stem cell), and then, cultured for 2 weeks. Then, the number of colonies in the flask was counted. In order to find out effects of administration of Osteopep1 of the present disclosure on bone marrow hematopoietic progenitor cells mobilized to blood in an osteoporosis model, an experiment was conducted in the same manner as the method of Example 1-4.

[4] = system: adhesion factors (Sdf-1a, Kitl, Angpt1, IL7, Vcam1, Spp1) for hematopoietic stem cells; assay: Expression of adhesion factors for bone marrow hematopoietic stem cells in osteoporosis model (real-time quantitative PCR); assay type: in vivo, mice; conditions: osteoporosis (ovariectomy) models, 50 μg/kg intraperitoneally every 12 hours for 3 weeks; p<0.05
Protocol: (§2) After 1 week, 50 μg/kg of Osteopep1 (PEPTRON) and 100 μl of PBS (Gibco) were intraperitoneally administered every 12 hours twice per day for 3 weeks.
as §1
An RNeasy Plus mini kit (Qiagen, Korea, Ltd.) was used to extract total RNA from a cell eluent and bone marrow cells. A kit produced by Clontech (Mountain View, Calif.) was used to synthesize cDNA from 5 μg of the total RNA. Further, a Corbett research RG-6000 real-time PCR device was used to perform a real-time quantitative PCR repeatedly for 40 cycles under a condition of 95° C. for 10 minutes; 95° C. for 10 seconds; 58° C. for 15 seconds; and 72° C. for 20 seconds per cycle.
After 1 week, 50 μg/kg of Osteopep1 (PEPTRON) and 100 μl of PBS (Gibco) were intraperitoneally administered every 12 hours twice per day for 3 weeks. […] On the 22nd day, the femurs was separated from the mouse and refrigerated in 80% ethanol. Then, a bone density and a trabecular thickness were measured by micro CT. […]

[5] = system: bone marrow hematopoietic stem cells; assay: Mobilization of bone marrow hematopoietic stem cells to blood in osteoporosis model, by markers of bone marrow hematopoietic stem cells; assay type: in vivo, mice; conditions: osteoporosis (ovariectomy) model, 50 μg/kg intraperitoneally every 12 hours for 3 weeks; p<0.05
Protocol: FIG. 9 is a diagram illustrating a mobilization level of bone marrow hematopoietic stem cells to blood when Osteopep1 is administered to an osteoporosis model, by using a marker of a bone marrow hematopoietic stem cell.
as §2
In order to check whether mobilization of bone marrow hematopoietic progenitor cells to blood in an osteoporosis model is induced by Osteopep1 of the present disclosure, the following experiment was conducted.

[6] = system: bone marrow hematopoietic stem cells (Lineage, Sca-1, c-kit); assay: Flow cytometry (FACs): number of bone marrow hematopoietic stem cells in bone marrow of normal mice; assay type: in vivo, C57BL/6 mice; conditions: 50 μg/kg vs PBS, bone marrow harvested after 60 minutes, p<0.05
Protocol: In order to find out any change in the number of bone marrow hematopoietic stem cells present in bone marrow of mice, Osteopep1 and PBS were injected to normal mice, respectively. After 60 minutes, bone marrow was harvested, and FACs was conducted to the harvested bone marrow by using three kinds of antibodies including Lineage, Sca-1, and c-kit as markers of bone marrow hematopoietic stem cells.
For analyzing bone marrow hematopoietic stem cells, red blood cells were removed from bone marrow, which was harvested from the tibias and the femurs of a 4-week- to 6-week-old C57BL/6 mouse, with an ammonium chloride solution (Stem Cell Technologies, Inc. 1:4) and then, the bone marrow was washed with a PBS (Gibco) solution including 10% fetal bovine serum (FBS) (Gibco) and 1% sodium azide (Sigma-Aldrich) and centrifuged for 10 minutes at 300×g. The hematopoietic cells included in the bone marrow were removed with MACs beads (Miltenyi Biotec) by using a biotinylated lineage antibody (Miltenyi Biotec), and the remaining cells were reacted at 4° C. for 30 minutes by using Sca-1-PECY7, c-kit-APC, CD150-PE, and CD48-FITC antibodies (BD science) and then analyzed with a flow cytometer LSRII (BD science).
Firstly, normal mice were divided into two groups each including 3 mice, and the respective groups were administered with 50 μg/kg of Osteopep1 and 100 μl of PBS (Gibco). […]

[7] = system: bone marrow hematopoietic progenitor cells in blood; assay: Colony-forming unit (CFU) assay: number of bone marrow hematopoietic progenitor cells in blood of normal mice; assay type: in vivo, C57BL/6 mice; conditions: normal mouse, 50 μg/kg intravenous injection to tail, blood collected after 60 minutes; p<0.05
Protocol: In order to measure the number of bone marrow hematopoietic progenitor cells in blood of a mouse, CFU assays were conducted. A mouse was anesthetized, and then, 500 μl to 700 μl of blood was collected from the heart into a heparin tube. Then, the collected blood was put into an ammonium chloride solution (Stem Cell Technologies, Inc. 1:10) and then placed in ice for 15 minutes, and red blood cells were removed. The resultant solution was shaken every 2 to 3 minutes to remove red blood cells well, and then, centrifuged for 7 minutes at 1000 rpm. The supernatant was removed, and the resultant solution was washed with IMDM (Gibco) supplied with 2% fetal bovine serum (FBS) (Gibco). The washed cells (3×10^5 per mouse) were divided into three 35 mm dishes (1×10^5 per dish) respectively including methylcellulose-based media (Methocult, Stem cell), and then, cultured for 2 weeks. Then, the number of colonies in the flask was counted. In order to check whether mobilization of bone marrow hematopoietic progenitor cells to blood is induced by a decrease in expression level of the adhesion factors caused by administration of Osteopep1 of the present disclosure, a mouse was administered with 50 μg/kg of Osteopep1 by intravenous injection to its tail, and after 60 minutes, blood was collected from the heart. Then, a CFU (Colony-forming unit) assay was conducted thereto.

DNPGEDAPAEDMARY [Osteopep1]
bone density percentage (BV/TV, %) (bone (femurs)): increased
trabecular thickness (mm) (bone (femurs)): increased
expression levels of Sdf-1a, Kitl, and Angpt1 in osteoblasts [1]: concentration-dependently decreased
expression levels of the main adhesion factors Sdf-1a, Kitl, Angpt1, and Spp1 [2]: decreased
mobilization of bone marrow hematopoietic progenitor cells to blood (CFU assay) [3]: increased
expression levels of the adhesion factors (Sdf-1a, Kitl, Angpt1, IL7, Vcam1, Spp1) for hematopoietic stem cells [4]: decreased
mobilized amounts of the markers of bone marrow hematopoietic stem cells [5]: increased
bone marrow hematopoietic stem cells marked by Lineage, Sca-1, and c-kit in bone marrow (FACs) [6]: decreased
mobilization of bone marrow hematopoietic progenitor cells to blood (CFU assay) [7]: increased
